# Source: US6841236B2, “Articles containing thioxanthone dyes” (3M Innovative Properties Co., priority 2001, dated 2005)
# How the values were obtained:
# Assay type in all cases: physicochemical
# [1] = Dye concentration in saturated acetone solution at room temperature; details: 72 hours at RT, 0.45 micron PTFE filtered, absorbance at 535 nm
# Procedure: Examples 4-7 were prepared by placing 60-100 mg of each of the compounds of Examples 1-3 and 6-methoxy-14H-anthra(2,1,9-mna)thioxanthene-14-one (described by Carlini et al.) in a vial with 5.0 ml acetone. […] Each vial was hand shaken and the solution was filtered using a 0.45 micron polytetrafluoroethylene (PTFE) filter commercially available from VWR Scientific Products, West Chester, Pa. under the trade designation “Acrodisc 13CR PTFE”.
# The amount of fluorescent dye in the saturated acetone solution was determined by measuring the major dye absorption band at 535 nm using a UV-Vis Spectrophotometer commercially available from Shimadzu Scientific Instruments, Inc., Columbia, Md. under the trade designation “Shimadzu model UV-2401PC”. Dye concentrations were calculated by measuring the absorbance of the saturated acetone solution, and then diluting that solution until absorbance of the resulting solution was below 3. The dyes were assumed to have equal absorbance per mole. Using the dilution and an absorbance coefficient of 16,100 A/mol/L (coefficient obtained in acetone for the dye of Example 3) and assuming a Beer's Law relationship, the concentration of dye in each saturated solution was calculated and is set out in TABLE I
# [2] = Daytime color and visual inspection of PMMA film with dye laminated to retroreflective sheeting
# Procedure: (§1) The daytime color of each article was measured using a Labsphere BFC-450 Bispectral Colorimeter commercially available from Labsphere, North Sutton, N.H. The daytime chromaticity (x,y), total luminance factor (YT), and fluorescence luminance factor (YF; which is a measure of the fluorescent properties of the article) calculated for the CIE D65 and the CIE 1931 observer are provided in TABLE II
# Examples 11-16 were prepared with the compounds of Examples 1-2 and 6-methoxy-14H-anthra(2,1,9-mna)thioxanthene-14-one in polymethylmethacrylate (PMMA) resin at the wt.-% of dye shown in TABLE III. The samples were prepared by dry blending the dye with a medium impact modified grade PMMA resin commercially available from Ineos Acrylics Inc., Cordova, Tenn. under the trade designation “CP923”. Films of 0.1 mm thickness were extruded through a single screw extruder with three heating zones set at 249° C. to 260° C. […] Examples 11 and 12 and Examples 13 and 14 had equal molar loadings of dye.
# The resultant films were laminated to Scotchlite 3970 reflective sheeting on aluminum panels as described in Examples 8-10. Color values were measured as described in Examples 8-10 and the results set out in TABLE III.
# [3] = Daytime color of copolyester film with dye laminated to retroreflective sheeting; details: dye 0.2 wt.-% in copolyester resin, 0.1 mm film on Scotchlite 3970
# Procedure: as §1
# Examples 17-18 were prepared as described in Examples 8-10, except that the dyes of Examples 1 and 2 at a 0.2 wt.-% loading were independently incorporated into a copolyester resin. The copolyester resin was prepared using terephthalic and isophthalic acid in an 80/20 ratio and ethylene glycol in the conventional manner and analogous to the production of polyethylene terephthalate according to the method described in Macromolecular Syntheses, A Periodic Publication of Methods for the Preparation of Macromolecules, Collective Volume I, 1977, J. A. Moore, Editor, (John Wiley & Sons, New York; 1978);p. 17-21. The extrusion conditions for the copolyester were 254-260° C. using a single screw extruder and the resultant film thickness was 0.1 mm.
# The resultant films were laminated to Scotchlite 3970 reflective sheeting on aluminum panels as described in Examples 8-10. Color values were measured as described in Examples 8-10 and the results set out in TABLE IV.
# [4] = Daytime color of vinyl film with dye laminated to retroreflective sheeting; details: 0.18 g dye in 65 g GEON 178 / Elvacite 2013 mixture, 0.04 mm vinyl film on Scotchlite 3970
# Procedure: as §1
# Examples 22-23 were prepared by independently stirring 0.18 g of the dye of Examples 1 and 3 into 65 g of a mixture composed of 42 wt.-% DIBK, xylol, and mineral spirit (1.7:2.3:1), 44 wt.-% of a polyvinyl chloride dispersion commercially available from PolyOne, Cleveland, Ohio under the trade designation “GEON 178” and 14 wt.-% of a polyacrylate commercially available from Ineos Acrylics Inc., Cordova, Tenn. under the trade designation “Elvacite 2013”. Each mixture was allowed to stand at room temperature for one hour prior to knife coating onto a pre-sized paper substrate. Each coated substrate was placed in a 150° F. (66° C.) oven for 1.5 minutes, followed by a 300° F. (149° C.) oven for 1.0 minute and a 400° F. (204° C.) oven for 0.75 minute, resulting in a 0.04 mm thick fluorescent colored vinyl film.
# The resultant films were laminated to Scotchlite 3970 reflective sheeting on aluminum panels as described in Examples 8-10. Color values were measured as described in Examples 8-10 and the results set out in TABLE VI.
# [5] = Daytime color of polycarbonate sheet with dye laminated to retroreflective sheeting (Labsphere BFC-450 Bispectral Colorimeter); details: 0.2% dye in polycarbonate FCR-2407, 0.1 mm sheet on Scotchlite 3970; CIE D65, CIE 1931 observer
# Procedure: Examples 8-10 were prepared with the compounds of Examples 1 and 2 and 6-methoxy-14H-anthra(2,1,9-mna)thioxanthene-14-one at a 0.2% loading in polycarbonate FCR-2407. Extrusion conditions for the polycarbonate were 260-304° C. using a single screw extruder. Optically transparent pressure sensitive adhesive with a liner on both sides of the adhesive was laminated to the 0.1 mm thick sheet of polycarbonate by removing one of the liners from the adhesive and then applying the exposed adhesive to the polycarbonate sheet with two passes of a roller using hand pressure.
# The remaining liner was removed from the adhesive and the polycarbonate sheet construction was laminated to retroreflective sheeting commercially available from 3M under the trade designation “Scotchlite Diamond Grade LDP Reflective Sheeting Series 3970” (Scotchlite 3970) with two passes of a roller using hand pressure. The Scotchlite 3970 reflective sheeting had previously been laminated to a 7 cm wide by 28 cm long aluminum panel (6061T6 alloy with etch and desmut surface from Q Panel Company, Cleveland, Ohio) with two passes of a roller with hand pressure.
# as §1
# [6] = dye 0.2 wt-% in PMMA CP923, 0.1 mm film on Scotchlite 3970
# [7] = dye 0.38 wt-% in PMMA CP923, 0.1 mm film on Scotchlite 3970
# [8] = dye 1.27 wt-% in PMMA CP923, 0.1 mm film on Scotchlite 3970
smiles,measurement,setting,value
"CCCCCCCCOc1cc2c3ccccc3c(=O)c3ccc4c5ccccc5sc1c4c32 [Example 1, 6-n-Octyloxy-14H-anthra(2,1,9mna)thioxanthene-14-one]",Dye Concentration in Acetone at RT,[1],0.19 mg/mL
same,fluorescence relative to articles with the 6-methoxy dye,"[2]; PMMA films, equal molar loadings of dye, by fluorescence luminance factor",higher fluorescence
same,X (daytime chromaticity),[2]; [6],0.5210
same,YF (fluorescence luminance factor),[2]; [6],16.83
same,YT (total luminance factor),[2]; [6],30.85
same,y (daytime chromaticity),[2]; [6],0.3252
same,X (daytime chromaticity),[2]; [7],0.5923
same,YF (fluorescence luminance factor),[2]; [7],13.74
same,YT (total luminance factor),[2]; [7],19.96
same,y (daytime chromaticity),[2]; [7],0.3022
same,X (daytime chromaticity),[2]; [8],0.6305
same,YF (fluorescence luminance factor),[2]; [8],4.97
same,YT (total luminance factor),[2]; [8],7.80
same,y (daytime chromaticity),[2]; [8],0.3008
same,visual inspection of film for undissolved dye,"[2]; extruded PMMA CP923 film 0.1 mm, 6-methoxy dye at 1 wt.-%, dyes of Examples 1-2 at up to 1.27 wt-%",uniform appearance with no undissolved dye seen
same,YF (fluorescence luminance factor),[3],11.70
same,YT (total luminance factor),[3],22.83
same,x (daytime chromaticity),[3],0.5429
same,y (daytime chromaticity),[3],0.3056
same,Y (daytime chromaticity),[4],0.2762
same,YF (fluorescence luminance factor),[4],12.31
same,YT (total luminance factor),[4],23.82
same,x (daytime chromaticity),[4],0.5149
same,YF (fluorescence luminance factor),[5],14.6
same,YT (total luminance factor),[5],32.87
same,x (daytime chromaticity),[5],0.5232
same,y (daytime chromaticity),[5],0.3132
